Reference: patent US9546173B2 (Novartis AG, priority 2012, dated 2017)

What follows are compounds tested against activated ERK2 (Homo sapiens (Human), UniProt P28482) (assay: Activated ERK2 kinase assay (AlphaScreen, ERKtide peptide phosphorylation)). Conditions: […] ERK2, 200 nM ERKtide peptide, 35 μM ATP, 30 min preincubation; read-out: ERK2 IC50.
Assay type: biochemical
From the text: Production of Activated ERK2 Protein:
Activated ERK2 protein was generated in insect cells by co-expression with a constitutively active form of MEK1. The ERK2 protein was expressed and purified as a nHis-PreScission-ERK2 tagged protein and then proteolytically processed to the full-length wild-type protein. […] Double-phosphorylated ERK2 protein was purified from the mixture by mono-Q column separation.
Activated ERK2 Kinase Assay:
A 16-point, half-log dilution series of compounds at 41× final concentration was used for generating IC50 curves. Compound dilution series were prepared in 100% DMSO. ERK2 was preincubated with compounds for 30 minutes at ambient temperature. Reaction was initiated by addition of a substrate cocktail of ERKtide peptide and ATP and was allowed to proceed for 2-3 hours at ambient temperature. Reaction was terminated by addition of 10 μL of a 2× stop buffer consisting of 100 mM Tris-Cl [pH 7.5], 25 mM EDTA, 0.01% Tween 20, 10 μg/mL of AlphaScreen Protein A Acceptor Beads, 10 μg/mL of Streptavidin Donor Beads (PerkinElmer, Waltham, Mass.), and 1.4 μg/mL phospho-EGF Receptor (Thr669) antibody (Cat #3056, Cell Signaling Technology, Danvers, Mass.). Terminated reactions were read, after overnight incubation in the dark, on an EnVision Multilabel Plate Reader (PerkinElmer, Waltham, Mass.), with excitation and emission wavelengths set to 680 nm and 570 nm, respectively. IC50 values were determined using a four-parameter fit.

activated ERK2, sequence (P28482 whole entry): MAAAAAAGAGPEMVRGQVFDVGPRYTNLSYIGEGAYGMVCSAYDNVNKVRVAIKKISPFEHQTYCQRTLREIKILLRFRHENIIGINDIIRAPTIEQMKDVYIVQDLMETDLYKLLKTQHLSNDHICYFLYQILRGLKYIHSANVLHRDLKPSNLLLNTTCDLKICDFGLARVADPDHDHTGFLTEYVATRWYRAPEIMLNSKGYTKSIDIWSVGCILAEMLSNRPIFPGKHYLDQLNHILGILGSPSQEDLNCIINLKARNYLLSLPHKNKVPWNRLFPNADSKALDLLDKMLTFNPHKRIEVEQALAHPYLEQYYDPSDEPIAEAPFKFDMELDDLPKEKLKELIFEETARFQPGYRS

Q: For `CC1(C)c2cnc(NC3CCOCC3)nc2CN1C(=O)N[C@@H]1CCN(Cc2ccccc2F)C1` [compound 146, (R)-N-(1-(2-fluorobenzyl)pyrrolidin-3-yl)-5,5-dimethyl-2-((tetrahydro-2H-pyran-4-yl)amino)-5H-pyrrolo[3,4-d]pyrimidine-6(7H)-carboxamide], which IC50 is on record?
A: The IC50 was 14 nM.

Q: How did the IC50 turn out when `COc1ccc(CNC(=O)N2Cc3nc(NC4CCOCC4)ncc3C2(C)C)cc1` [compound 125, N-(4-methoxybenzyl)-5,5-dimethyl-2-((tetrahydro-2H-pyran-4-yl)amino)-5H-pyrrolo[3,4-d]pyrimidine-6(7H)-carboxamide] was run?
A: Its IC50 is 56 nM.

Q: `CC1(C)c2cnc(N[C@H]3C[C@@H](O)C3)nc2CN1C(=O)N[C@H](CO)c1ccccc1` [compound 55, N-((S)-2-hydroxy-1-phenylethyl)-2-(((1s,3R)-3-hydroxycyclobutyl)amino)-5,5-dimethyl-5H-pyrrolo[3,4-d]pyrimidine-6(7H)-carboxamide] was tested. Which IC50 did it give?
A: The IC50 was 677 nM.

Q: Which IC50 does the source give for `CN1CCC(Nc2ncc3c(n2)CN(C(=O)N[C@H](CO)c2ccccc2)C3(C)C)CC1` [compound 61, (S)-N-(2-hydroxy-1-phenylethyl)-5,5-dimethyl-2-((1-methylpiperidin-4-yl)amino)-5H-pyrrolo[3,4-d]pyrimidine-6(7H)-carboxamide] here?
A: The IC50 was 21000 nM.

Q: `CC1(C)c2cnc(NC3CCOCC3)nc2CN1C(=O)NC1(c2ccccc2)CCOCC1` [compound 44, 5,5-dimethyl-N-(4-phenyltetrahydro-2H-pyran-4-yl)-2-((tetrahydro-2H-pyran-4-yl)amino)-5H-pyrrolo[3,4-d]pyrimidine-6(7H)-carboxamide] was tested. Which IC50 did it give?
A: The IC50 was 2730 nM.

Q: With `CC1(C)c2cnc(NC3CCOCC3)nc2CN1C(=O)NCc1nc(-c2ccc(F)cc2)cs1` [compound 89, N-((4-(4-fluorophenyl)thiazol-2-yl)methyl)-5,5-dimethyl-2-((tetrahydro-2H-pyran-4-yl)amino)-5H-pyrrolo[3,4-d]pyrimidine-6(7H)-carboxamide] as the compound, how does the IC50 read?
A: Its IC50 is 131 nM.

Q: How did the IC50 turn out when `O=C(Nc1cnn(Cc2ccccc2F)c1)N1Cc2nc(NC3CCOCC3)ncc2C12CCC2` [compound 99, N-(1-(2-fluorobenzyl)-1H-pyrazol-4-yl)-2′-((tetrahydro-2H-pyran-4-yl)amino)spiro[cyclobutane-1,5′-pyrrolo[3,4-d]pyrimidine]-6′(7′H)-carboxamide] was run?
A: The IC50 was 12 nM.

Q: `CC1(C)c2cnc(NC3CCOCC3)nc2CN1C(=O)NCC1CCOCC1` [compound 16, 5,5-dimethyl-2-((tetrahydro-2H-pyran-4-yl)amino)-N-((tetrahydro-2H-pyran-4-yl)methyl)-5H-pyrrolo[3,4-d]pyrimidine-6(7H)-carboxamide] was tested. Which IC50 did it give?
A: Its IC50 is 362 nM.

Q: `CC1(C)c2cnc(NC3CCOCC3)nc2CN1C(=O)NCc1ccc(SC(F)(F)F)cc1` [compound 132, 5,5-dimethyl-2-((tetrahydro-2H-pyran-4-yl)amino)-N-(4-((trifluoromethyl)thio)benzyl)-5H-pyrrolo[3,4-d]pyrimidine-6(7H)-carboxamide] was tested. Which IC50 did it give?
A: The IC50 was 11 nM.

Q: Which IC50 does the source give for `Cc1ccc(S(=O)(=O)N2CCC[C@@H](NC(=O)N3Cc4nc(NC5CCOCC5)ncc4C3(C)C)C2)cc1` [compound 114, (R)-5,5-dimethyl-2-((tetrahydro-2H-pyran-4-yl)amino)-N-(1-tosylpiperidin-3-yl)-5H-pyrrolo[3,4-d]pyrimidine-6(7H)-carboxamide] here?
A: The IC50 was 176 nM.

Q: Which IC50 does the source give for `CC1(C)c2cnc(NC3CCOCC3)nc2CN1C(=O)NCc1cc(F)cc(S(C)(=O)=O)c1` [compound 107, N-(3-fluoro-5-(methylsulfonyl)benzyl)-5,5-dimethyl-2-((tetrahydro-2H-pyran-4-yl)amino)-5H-pyrrolo[3,4-d]pyrimidine-6(7H)-carboxamide] here?
A: Its IC50 is 44 nM.

Q: With `CN1CCC(Nc2ncc3c(n2)CN(C(=O)N[C@H](CO)c2ccccc2)C3(C)C)CC1=O` (stereo partly drawn) [compound 82, N-((S)-2-hydroxy-1-phenylethyl)-5,5-dimethyl-2-((1-methyl-2-oxopiperidin-4-yl)amino)-5H-pyrrolo[3,4-d]pyrimidine-6(7H)-carboxamide] as the compound, how does the IC50 read?
A: Its IC50 is 208 nM.

Q: How did the IC50 turn out when `CC1(C)c2cnc(NC3CCC(F)(F)CC3)nc2CN1C(=O)N[C@H](CO)c1ccccc1` [compound 11, (S)-2-((4,4-difluorocyclohexyl)amino)-N-(2-hydroxy-1-phenylethyl)-5,5-dimethyl-5H-pyrrolo[3,4-d]pyrimidine-6(7H)-carboxamide] was run?
A: Its IC50 is 146 nM.

Q: How did the IC50 turn out when `CC1(C)c2cnc(NC3CCOCC3)nc2CN1C(=O)NCC1CCCOC1` (stereo not shown) [compound 15, 5,5-dimethyl-N-((tetrahydro-2H-pyran-3-yl)methyl)-2-((tetrahydro-2H-pyran-4-yl)amino)-5H-pyrrolo[3,4-d]pyrimidine-6(7H)-carboxamide] was run?
A: Its IC50 is 842 nM.

Q: Which IC50 does the source give for `CC(C)[C@@H](C)NC(=O)N1Cc2nc(NC3CCOCC3)ncc2C1(C)C` [compound 33, (R)-5,5-dimethyl-N-(3-methylbutan-2-yl)-2-((tetrahydro-2H-pyran-4-yl)amino)-5H-pyrrolo[3,4-d]pyrimidine-6(7H)-carboxamide] here?
A: Its IC50 is 596 nM.

Q: Which IC50 does the source give for `Cc1cccc([C@@H](CO)NC(=O)N2Cc3nc(NC4CCOCC4)ncc3C2(C)C)c1` [compound 127, (S)-N-(2-hydroxy-1-(m-tolyl)ethyl)-5,5-dimethyl-2-((tetrahydro-2H-pyran-4-yl)amino)-5H-pyrrolo[3,4-d]pyrimidine-6(7H)-carboxamide] here?
A: Its IC50 is 16 nM.

Q: `CC1(C)c2cnc(NC3CC(F)(F)C3)nc2CN1C(=O)N[C@H](CO)c1ccccc1` [compound 54, (S)-2-((3,3-difluorocyclobutyl)amino)-N-(2-hydroxy-1-phenylethyl)-5,5-dimethyl-5H-pyrrolo[3,4-d]pyrimidine-6(7H)-carboxamide] was tested. Which IC50 did it give?
A: The IC50 was 727 nM.

Q: `CC1(C)c2cnc(NC3CCOCC3)nc2CN1C(=O)NCc1cccc(Cl)c1` [compound 21, N-(3-chlorobenzyl)-5,5-dimethyl-2-((tetrahydro-2H-pyran-4-yl)amino)-5H-pyrrolo[3,4-d]pyrimidine-6(7H)-carboxamide] was tested. Which IC50 did it give?
A: Its IC50 is 6 nM.

Q: How did the IC50 turn out when `CO[C@H]1CC[C@H](Nc2ncc3c(n2)CN(C(=O)N[C@H](CO)c2ccccc2)C3(C)C)CC1` [compound 67, N-((S)-2-hydroxy-1-phenylethyl)-2-(((1r,4S)-4-methoxycyclohexyl)amino)-5,5-dimethyl-5H-pyrrolo[3,4-d]pyrimidine-6(7H)-carboxamide] was run?
A: Its IC50 is 68 nM.

Q: Which IC50 does the source give for `CC1(C)c2cnc(NC3CCOCC3)nc2CN1C(=O)Nc1cnn(Cc2ccccc2F)c1` [compound 105, N-(1-(2-fluorobenzyl)-1H-pyrazol-4-yl)-5,5-dimethyl-2-((tetrahydro-2H-pyran-4-yl)amino)-5H-pyrrolo[3,4-d]pyrimidine-6(7H)-carboxamide] here?
A: Its IC50 is 39 nM.

Q: With `CC1(C)c2cnc(NC3CCOC3)nc2CN1C(=O)N[C@H](CO)c1ccccc1` (stereo partly drawn) [compound 12, N-((S)-2-hydroxy-1-phenylethyl)-5,5-dimethyl-2-((tetrahydrofuran-3-yl)amino)-5H-pyrrolo[3,4-d]pyrimidine-6(7H)-carboxamide] as the compound, how does the IC50 read?
A: Its IC50 is 375 nM.

Q: With `CC1(C)c2cnc(NC3CCOCC3)nc2CN1C(=O)NCC1CC1` [compound 37, N-(cyclopropylmethyl)-5,5-dimethyl-2-((tetrahydro-2H-pyran-4-yl)amino)-5H-pyrrolo[3,4-d]pyrimidine-6(7H)-carboxamide] as the compound, how does the IC50 read?
A: Its IC50 is 541 nM.

Q: `CC1(C)c2cnc(NC3CCOCC3)nc2CN1C(=O)NCc1cc(F)cc(Cl)c1` [compound 13, N-(3-chloro-5-fluorobenzyl)-5,5-dimethyl-2-((tetrahydro-2H-pyran-4-yl)amino)-5H-pyrrolo[3,4-d]pyrimidine-6(7H)-carboxamide] was tested. Which IC50 did it give?
A: Its IC50 is 8 nM.

Q: `CC1(C)c2cnc(NC3CCC(=O)NC3)nc2CN1C(=O)N[C@H](CO)c1ccccc1` (stereo partly drawn) [compound 85, N-((S)-2-hydroxy-1-phenylethyl)-5,5-dimethyl-2-((6-oxopiperidin-3-yl)amino)-5H-pyrrolo[3,4-d]pyrimidine-6(7H)-carboxamide] was tested. Which IC50 did it give?
A: Its IC50 is 53 nM.

Q: `CC1(C)c2cnc(NC3CCOCC3)nc2CN1C(=O)N[C@H]1c2ccccc2C[C@H]1O` [compound 38, N-((1S,2R)-2-hydroxy-2,3-dihydro-1H-inden-1-yl)-5,5-dimethyl-2-((tetrahydro-2H-pyran-4-yl)amino)-5H-pyrrolo[3,4-d]pyrimidine-6(7H)-carboxamide] was tested. Which IC50 did it give?
A: Its IC50 is 516 nM.

Q: How did the IC50 turn out when `CC[C@@]1(C)c2cnc(NC3CCOCC3)nc2CN1C(=O)N[C@H](CO)c1ccccc1` [compound 79, (S)-5-ethyl-N-((S)-2-hydroxy-1-phenylethyl)-5-methyl-2-((tetrahydro-2H-pyran-4-yl)amino)-5H-pyrrolo[3,4-d]pyrimidine-6(7H)-carboxamide] was run?
A: Its IC50 is 971 nM.

Q: With `C[C@@H](NC(=O)N1Cc2nc(NC3CCOCC3)ncc2C1C1CC1)c1cccc(Cl)c1` (stereo partly drawn) [compound 171, N-((R)-1-(3-chlorophenyl)ethyl)-5-cyclopropyl-2-((tetrahydro-2H-pyran-4-yl)amino)-5H-pyrrolo[3,4-d]pyrimidine-6(7H)-carboxamide] as the compound, how does the IC50 read?
A: The IC50 was 343 nM.

Q: How did the IC50 turn out when `CC1(C)c2cnc(NC3CCOCC3)nc2CN1C(=O)NCc1cc(Cl)cc(S(C)(=O)=O)c1` [compound 109, N-(3-chloro-5-(methylsulfonyl)benzyl)-5,5-dimethyl-2-((tetrahydro-2H-pyran-4-yl)amino)-5H-pyrrolo[3,4-d]pyrimidine-6(7H)-carboxamide] was run?
A: Its IC50 is 6 nM.
